Measured values taken from patent publication US12077503B2, “Substituted cyclic amides and their use as herbicides” (FMC CORPORATION, priority 2015, dated 2024).

Columns and labels:
Format in all cases: in vivo
[1] = tested on: barnyardgrass (Echinochloa crus-galli); test: Test G Post-Emergence Protocol; settings: Echinochloa crus-galli, post-emergence, 312 h, read-out: Barnyardgrass damage rating
In short: (§1)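 A glasshouse post-emergence test: 8-day-old plants sprayed at 15.625, 62.5 or 250 g/ha, then grown at 24/16 °C day/night with 14 h light and 65% humidity. Damage rated 13 days later, 0–100.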

[2] = tested on: redroot pigweed (Amaranthus retroflexus); test: Test G Post-Emergence Protocol; settings: Amaranthus retroflexus, post-emergence, 312 h, read-out: Pigweed, Redroot damage rating
In short: as §1

[3] = tested on: velvetleaf (Abutilon theophrasti); test: Test G Post-Emergence Protocol; settings: Abutilon theophrasti, post-emergence, 312 h, read-out: Velvetleaf damage rating
In short: as §1

[4] = tested on: ivy-leaved morning glory (Ipomoea hederacea); test: Test G Post-Emergence Protocol; settings: Ipomoea, post-emergence, 312 h, read-out: Morningglory, Ivy-leaved damage rating
In short: as §1

[5] = tested on: giant foxtail (Setaria faberi); test: Test G Post-Emergence Protocol; settings: Setaria faberi, post-emergence, 312 h, read-out: Foxtail, Giant damage rating
In short: as §1

corn (Zea mays) [6] = test: Test G Post-Emergence Protocol; settings: Zea mays, post-emergence, 312 h, read-out: Corn damage rating
In short: as §1

[7] = tested on: barnyardgrass (Echinochloa crus-galli); test: Test G Pre-Emergence Protocol; settings: Echinochloa crus-galli, pre-emergence, 312 h, evaluated after 13 days
In short: (§2)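 Under a 24/16° C day/night regime with 14 h light and 65% humidity, sown pots were sprayed after one day with compound (15.625, 62.5 or 250 g/ha; 50:50 acetone/water, 0.5% Tween 20). Damage was assessed visually 13 days later, 0 to 100.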

[8] = tested on: redroot pigweed (Amaranthus retroflexus); test: Test G Pre-Emergence Protocol; settings: Amaranthus retroflexus, pre-emergence, 312 h, evaluated after 13 days
In short: as §2

[9] = tested on: velvetleaf (Abutilon theophrasti); test: Test G Pre-Emergence Protocol; settings: Abutilon theophrasti, pre-emergence, 312 h, evaluated after 13 days
In short: as §2

[10] = tested on: ivy-leaved morning glory (Ipomoea hederacea); test: Test G Pre-Emergence Protocol; settings: Ipomoea, pre-emergence, 312 h, evaluated after 13 days
In short: as §2

[11] = tested on: giant foxtail (Setaria faberi); test: Test G Pre-Emergence Protocol; settings: Setaria faberi, pre-emergence, 312 h, evaluated after 13 days
In short: as §2

corn (Zea mays) [12] = test: Test G Pre-Emergence Protocol; settings: Zea mays, pre-emergence, 312 h, evaluated after 13 days
In short: as §2

[13] = 15.625 g ai/ha, evaluated after 13 days (100=total damage to plant; 0=no damage to plant)
[14] = 62.5 g ai/ha, evaluated after 13 days, 100=total damage to plant, 0=no damage to plant
[15] = 250 g ai/ha, evaluated after 13 days, 100=total damage to plant, 0=no damage to plant

CSc1ccncc1NC(=O)[C@H]1C(=O)N(C)C[C@@H]1c1cccc(C(F)(F)F)c1 (racemic) [Compound 1750] was tested, and the pest or weed control at 15.625 g/ha [1, 13] was 0%, the pest or weed control at 62.5 g/ha [1, 14] was 0% and the pest or weed control at 250 g/ha [1, 15] was 20%. For the same molecule, the pest or weed control at 15.625 g/ha [2, 13] was 0%, the pest or weed control at 62.5 g/ha [2, 14] was 10% and the pest or weed control at 250 g/ha [2, 15] was 20%. It also gave a pest or weed control at 15.625 g/ha [3, 13] of 0%, a pest or weed control at 62.5 g/ha [3, 14] of 0% and a pest or weed control at 250 g/ha [3, 15] of 0%. For the same molecule, the pest or weed control at 15.625 g/ha [4, 13] was 0%, the pest or weed control at 62.5 g/ha [4, 14] was 10% and the pest or weed control at 250 g/ha [4, 15] was 10%. For the same molecule, the pest or weed control at 15.625 g/ha [5, 13] was 0%, the pest or weed control at 62.5 g/ha [5, 14] was 0% and the pest or weed control at 250 g/ha [5, 15] was 50%. For the same molecule, the plant injury at 15.625 g/ha (corn (Zea mays) [6]; [13]) was 0%, the plant injury at 62.5 g/ha (corn (Zea mays) [6]; [14]) was 10% and the plant injury at 250 g/ha (corn (Zea mays) [6]; [15]) was 10%. The pest or weed control at 15.625 g/ha ([7]; 15.625 g ai/ha, read-out: Barnyardgrass damage rating (100=total damage to plant; 0=no damage to plant)) was 0%, the pest or weed control at 62.5 g/ha ([7]; 62.5 g ai/ha, 100=total damage to plant, 0=no damage to plant, read-out: Barnyardgrass damage rating) was 10% and the pest or weed control at 250 g/ha ([7]; 250 g ai/ha, read-out: Barnyardgrass damage rating (100=total damage to plant; 0=no damage to plant)) was 10%. The pest or weed control at 15.625 g/ha ([8]; 15.625 g ai/ha, read-out: Pigweed, Redroot damage rating (100=total damage to plant; 0=no damage to plant)) was 0%, the pest or weed control at 62.5 g/ha ([8]; 62.5 g ai/ha, 100=total damage to plant, 0=no damage to plant, read-out: Pigweed, Redroot damage rating) was 0% and the pest or weed control at 250 g/ha ([8]; 250 g ai/ha, read-out: Pigweed, Redroot damage rating (100=total damage to plant; 0=no damage to plant)) was 0%. The pest or weed control at 15.625 g/ha ([9]; 15.625 g ai/ha, read-out: Velvetleaf damage rating (100=total damage to plant; 0=no damage to plant)) was 0%, the pest or weed control at 62.5 g/ha ([9]; 62.5 g ai/ha, 100=total damage to plant, 0=no damage to plant, read-out: Velvetleaf damage rating) was 0% and the pest or weed control at 250 g/ha ([9]; 250 g ai/ha, read-out: Velvetleaf damage rating (100=total damage to plant; 0=no damage to plant)) was 0%. For the same molecule, the pest or weed control at 15.625 g/ha ([10]; 15.625 g ai/ha, read-out: Morningglory, Ivy-leaved damage rating (100=total damage to plant; 0=no damage to plant)) was 0%, the pest or weed control at 62.5 g/ha ([10]; 62.5 g ai/ha, 100=total damage to plant, 0=no damage to plant, read-out: Morningglory, Ivy-leaved damage rating) was 0% and the pest or weed control at 250 g/ha ([10]; 250 g ai/ha, read-out: Morningglory, Ivy-leaved damage rating (100=total damage to plant; 0=no damage to plant)) was 0%. It also gave a pest or weed control at 15.625 g/ha ([11]; 15.625 g ai/ha, read-out: Foxtail, Giant damage rating (100=total damage to plant; 0=no damage to plant)) of 0%, a pest or weed control at 62.5 g/ha ([11]; 62.5 g ai/ha, 100=total damage to plant, 0=no damage to plant, read-out: Foxtail, Giant damage rating) of 20% and a pest or weed control at 250 g/ha ([11]; 250 g ai/ha, read-out: Foxtail, Giant damage rating (100=total damage to plant; 0=no damage to plant)) of 70%. The plant injury at 15.625 g/ha (corn (Zea mays) [12]; 15.625 g ai/ha, read-out: Corn damage rating (100=total damage to plant; 0=no damage to plant)) was 0%, the plant injury at 62.5 g/ha (corn (Zea mays) [12]; 62.5 g ai/ha, 100=total damage to plant, 0=no damage to plant, read-out: Corn damage rating) was 0% and the plant injury at 250 g/ha (corn (Zea mays) [12]; 250 g ai/ha, read-out: Corn damage rating (100=total damage to plant; 0=no damage to plant)) was 10%.
